± gives the expanded uncertainty stated by the source.
Experiment: molar heat capacity at constant pressure; xn = mol fraction of the nth substance listed
Details: 101.3 kPa, Liquid, Small sample (50 mg) DSC

CNCCN(C)C [N,N,N'-trimethylethylenediamine] + O
molar heat capacity at constant pressure [J/K/mol]
Details | x1 = 0.1 | x1 = 0.3 | x1 = 0.5 | x1 = 0.7 | x1 = 0.9 | x1 = 1
303.2 K | 105.2 ± 4.3 | 151 ± 5.4 | 188.5 ± 6.5 | 217.4 ± 7.4 | 245.2 ± 8.2 | 258.3 ± 8.6
308.2 K | 105.5 ± 4.3 | 152.4 ± 5.5 | 190.1 ± 6.5 | 219.1 ± 7.4 | 246.8 ± 8.3 | 260 ± 8.6
313.2 K | 106.1 ± 4.4 | 154 ± 5.5 | 192.1 ± 6.6 | 221.2 ± 7.5 | 249.3 ± 8.4 | 262.7 ± 8.7
318.2 K | 106.5 ± 4.4 | 155.6 ± 5.6 | 193.9 ± 6.7 | 223.1 ± 7.5 | 251.7 ± 8.5 | 265.3 ± 8.8
323.2 K | 107.3 ± 4.5 | 157.8 ± 5.7 | 196.1 ± 6.7 | 226 ± 7.6 | 255.5 ± 8.6 | 269.2 ± 8.9
328.2 K | 107.6 ± 4.5 | 159.5 ± 5.8 | 198.2 ± 6.8 | 228.5 ± 7.7 | 258.7 ± 8.7 | 272.7 ± 9
333.2 K | 108.1 ± 4.6 | 161.4 ± 5.8 | 200.2 ± 6.9 | 231 ± 7.8 | 261.8 ± 8.8 | 276 ± 9.2
338.2 K | 108.5 ± 4.6 | 162.7 ± 5.9 | 201.9 ± 6.9 | 233.3 ± 7.9 | 264.4 ± 8.9 | 278.9 ± 9.3
343.2 K | 109 ± 4.6 | 163.8 ± 5.9 | 203.3 ± 7 | 235.3 ± 8 | 267.3 ± 9 | 281.3 ± 9.3
348.2 K | 109.4 ± 4.7 | 164.8 ± 6 | 204.4 ± 7 | 237.5 ± 8 | 270.2 ± 9.1 | 283.4 ± 9.4
353.2 K | 110.3 ± 4.7 | 166.2 ± 6 | 206.3 ± 7.1 | 239.8 ± 8.1 | 273.1 ± 9.2 | 286.6 ± 9.5

NCCN1CCNCC1 [N-(β-aminoethyl)piperazine)] + O
molar heat capacity at constant pressure [J/K/mol]
Details | x1 = 0.1 | x1 = 0.3 | x1 = 0.5 | x1 = 0.7 | x1 = 0.9 | x1 = 1
303.2 K | 109.7 ± 4.5 | 157.3 ± 5.7 | 202.1 ± 7 | 242.8 ± 8.3 | 278.3 ± 9.4 | 289.7 ± 9.6
308.2 K | 110.2 ± 4.5 | 158.5 ± 5.7 | 203.2 ± 7.1 | 244.3 ± 8.3 | 279.8 ± 9.4 | 290.8 ± 9.6
313.2 K | 110.7 ± 4.6 | 160.3 ± 5.8 | 204.8 ± 7.1 | 246.3 ± 8.4 | 281.6 ± 9.5 | 293.1 ± 9.7
318.2 K | 111 ± 4.6 | 162.1 ± 5.9 | 206.3 ± 7.2 | 248.1 ± 8.5 | 283.1 ± 9.5 | 294.7 ± 9.8
323.2 K | 111.4 ± 4.7 | 164.3 ± 6 | 208.5 ± 7.2 | 250.6 ± 8.5 | 285.2 ± 9.6 | 296.9 ± 9.8
328.2 K | 111.4 ± 4.7 | 165.7 ± 6 | 210 ± 7.3 | 252.5 ± 8.6 | 287 ± 9.7 | 298.5 ± 9.9
333.2 K | 111.6 ± 4.8 | 167.3 ± 6.1 | 211.8 ± 7.3 | 253.5 ± 8.6 | 289 ± 9.7 | 300.7 ± 10
338.2 K | 111.8 ± 4.8 | 168.7 ± 6.1 | 213.6 ± 7.4 | 254.5 ± 8.7 | 290.9 ± 9.8 | 302.2 ± 10
343.2 K | 112.4 ± 4.8 | 170.1 ± 6.2 | 215.2 ± 7.5 | 255.9 ± 8.7 | 292 ± 9.8 | 303.3 ± 10
348.2 K | 112.6 ± 4.9 | 171.4 ± 6.2 | 216.3 ± 7.5 | 256.2 ± 8.7 | 292.5 ± 9.8 | 303.6 ± 10
353.2 K | 112.9 ± 4.9 | 173.1 ± 6.3 | 217.6 ± 7.5 | 257.3 ± 8.7 | 293.7 ± 9.9 | 304.6 ± 10
